{"source": "patent EP4793279A1", "about": "“COMPOUND AND METHOD FOR TREATING AND/OR […] KERATOSIS” (priority 2023, dated 2025)", "key": {"[1]": {"tested_on": "human liver cancer HepG2 cells", "details": "cited from earlier work"}, "[2]": {"details": "in water"}, "[3]": {"details": "for plasma drug concentrations above the LLOQ: topical gel, dose levels 1-5, LLOQ 0.02 ng/mL"}, "[4]": {"details": "for Labeled amount / Related substances Impurity A / Related substances Impurity B / Related substances Impurity C / Related substances Impurity D / Related substances Impurity E / Related substances Impurity F / Related substances RRT0.73 / Related substances RRT1.10 / Related substances RRT2.18 / Related substances Total impurities: mixed 1:5 with CMC-Na"}, "[5]": {"details": "20 °C"}, "[6]": {"tested_on": "experimental autoimmune encephalomyelitis (EAE)", "details": "in vivo; cited from earlier work"}, "beclin1": {"biological_target": "beclin1 (Homo sapiens, UniProt Q14457)", "sequence (Q14457 whole entry, species assumed)": "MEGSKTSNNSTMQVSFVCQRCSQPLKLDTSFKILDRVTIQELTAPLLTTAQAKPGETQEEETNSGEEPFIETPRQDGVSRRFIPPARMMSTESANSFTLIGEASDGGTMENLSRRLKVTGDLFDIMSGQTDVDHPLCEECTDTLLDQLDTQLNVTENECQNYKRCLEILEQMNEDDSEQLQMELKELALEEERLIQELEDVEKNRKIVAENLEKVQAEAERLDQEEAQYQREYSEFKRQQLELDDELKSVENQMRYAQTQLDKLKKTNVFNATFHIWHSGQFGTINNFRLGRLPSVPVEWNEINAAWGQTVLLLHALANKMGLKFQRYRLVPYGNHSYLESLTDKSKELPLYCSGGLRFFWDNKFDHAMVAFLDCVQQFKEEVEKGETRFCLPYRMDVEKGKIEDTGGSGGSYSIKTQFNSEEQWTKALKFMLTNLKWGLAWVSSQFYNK", "details": "targets beclin1; cited from earlier work"}, "[7]": {"details": "High humidity for 10 days (RH 90%±5%)"}, "[8]": {"details": "High temperature for 10 days (60°C±2°C)"}}, "note": "Where two headings read alike, the source gives them in different places.", "data": [{"smiles": "CO[C@H]1[C@H](O)[C@H](O[C@H]2CC[C@@]3(C)[C@H](CC[C@@H]4[C@@H]3CC[C@]3(C)[C@@H](C5=CC(=O)OC5)CC[C@]43O)C2)O[C@@H](C)[C@@H]1O", "note": "[17β-neriifolin]", "values": [{"measurement": "cell cycle arrest and apoptosis", "setting": "[1]", "value": "induce cell cycle arrest and apoptosis"}, {"measurement": "water solubility", "setting": "[2]", "value": "about 70 µg/mL"}, {"measurement": "systemic exposure, dose dependence", "setting": "[3]; 0.008-0.06 mg/cm^2 dose range", "value": "No dose-dependent increase"}, {"measurement": "plasma drug concentrations above the LLOQ", "setting": "[3]; four Australian subjects", "value": "0.021 to 0.101", "unit": "ng/mL"}, {"measurement": "plasma drug concentrations above the LLOQ", "setting": "[3]; seven Chinese subjects", "value": "0.022 to 0.106", "unit": "ng/mL"}, {"measurement": "stability of the combination", "setting": "[4]; combination with sodium carboxymethyl cellulose compared with combination with Carbomer", "value": "significantly superior"}, {"measurement": "impact on the related substances and drug content", "setting": "[4]; combined 1:5 with sodium carboxymethyl cellulose, high temperature, high humidity, illumination, 10 days", "value": "no impact"}, {"measurement": "Labeled amount", "setting": "[4]; 0 days", "value": 99.56, "unit": "%"}, {"measurement": "Related substances Impurity A", "setting": "[4]; 0 days", "value": 0.17, "unit": "%"}, {"measurement": "Related substances Impurity B", "setting": "[4]; 0 days", "value": 0.36, "unit": "%"}, {"measurement": "Related substances Impurity C", "setting": "[4]; 0 days", "value": 0.25, "unit": "%"}, {"measurement": "Related substances Impurity D", "setting": "[4]; 0 days", "value": 0.13, "unit": "%"}, {"measurement": "Related substances Impurity E", "setting": "[4]; 0 days", "value": 0.15, "unit": "%"}, {"measurement": "Related substances Impurity F", "setting": "[4]; 0 days", "value": 0.14, "unit": "%"}, {"measurement": "Related substances RRT0.73", "setting": "[4]; 0 days", "value": 0.05, "unit": "%"}, {"measurement": "Related substances RRT1.10", "setting": "[4]; 0 days", "value": 0.04, "unit": "%"}, {"measurement": "Related substances RRT2.18", "setting": "[4]; 0 days", "value": 0.03, "unit": "%"}, {"measurement": "Related substances Total impurities", "setting": "[4]; 0 days", "value": 1.32, "unit": "%"}, {"measurement": "Labeled amount", "setting": "[4]; [7]", "value": 99.42, "unit": "%"}, {"measurement": "Related substances Impurity A", "setting": "[4]; [7]", "value": 0.17, "unit": "%"}, {"measurement": "Related substances Impurity B", "setting": "[4]; [7]", "value": 0.36, "unit": "%"}, {"measurement": "Related substances Impurity C", "setting": "[4]; [7]", "value": 0.25, "unit": "%"}, {"measurement": "Related substances Impurity D", "setting": "[4]; [7]", "value": 0.13, "unit": "%"}, {"measurement": "Related substances Impurity E", "setting": "[4]; [7]", "value": 0.15, "unit": "%"}, {"measurement": "Related substances Impurity F", "setting": "[4]; [7]", "value": 0.14, "unit": "%"}, {"measurement": "Related substances RRT0.73", "setting": "[4]; [7]", "value": 0.05, "unit": "%"}, {"measurement": "Related substances RRT1.10", "setting": "[4]; [7]", "value": 0.04, "unit": "%"}, {"measurement": "Related substances RRT2.18", "setting": "[4]; [7]", "value": 0.03, "unit": "%"}, {"measurement": "Related substances Total impurities", "setting": "[4]; [7]", "value": 1.32, "unit": "%"}, {"measurement": "Labeled amount", "setting": "[4]; [8]", "value": 100.95, "unit": "%"}, {"measurement": "Related substances Impurity A", "setting": "[4]; [8]", "value": 0.17, "unit": "%"}, {"measurement": "Related substances Impurity B", "setting": "[4]; [8]", "value": 0.36, "unit": "%"}, {"measurement": "Related substances Impurity C", "setting": "[4]; [8]", "value": 0.25, "unit": "%"}, {"measurement": "Related substances Impurity D", "setting": "[4]; [8]", "value": 0.13, "unit": "%"}, {"measurement": "Related substances Impurity E", "setting": "[4]; [8]", "value": 0.15, "unit": "%"}, {"measurement": "Related substances Impurity F", "setting": "[4]; [8]", "value": 0.14, "unit": "%"}, {"measurement": "Related substances RRT0.73", "setting": "[4]; [8]", "value": 0.05, "unit": "%"}, {"measurement": "Related substances RRT1.10", "setting": "[4]; [8]", "value": 0.04, "unit": "%"}, {"measurement": "Related substances RRT2.18", "setting": "[4]; [8]", "value": 0.03, "unit": "%"}, {"measurement": "Related substances Total impurities", "setting": "[4]; [8]", "value": 1.32, "unit": "%"}, {"measurement": "Labeled amount", "setting": "[4]; Strong light for 10 days", "value": 99.96, "unit": "%"}, {"measurement": "Related substances Impurity A", "setting": "[4]; Strong light for 10 days", "value": 0.17, "unit": "%"}, {"measurement": "Related substances Impurity B", "setting": "[4]; Strong light for 10 days", "value": 0.36, "unit": "%"}, {"measurement": "Related substances Impurity C", "setting": "[4]; Strong light for 10 days", "value": 0.25, "unit": "%"}, {"measurement": "Related substances Impurity D", "setting": "[4]; Strong light for 10 days", "value": 0.13, "unit": "%"}, {"measurement": "Related substances Impurity E", "setting": "[4]; Strong light for 10 days", "value": 0.15, "unit": "%"}, {"measurement": "Related substances Impurity F", "setting": "[4]; Strong light for 10 days", "value": 0.14, "unit": "%"}, {"measurement": "Related substances RRT0.73", "setting": "[4]; Strong light for 10 days", "value": 0.05, "unit": "%"}, {"measurement": "Related substances RRT1.10", "setting": "[4]; Strong light for 10 days", "value": 0.04, "unit": "%"}, {"measurement": "Related substances RRT2.18", "setting": "[4]; Strong light for 10 days", "value": 0.03, "unit": "%"}, {"measurement": "Related substances Total impurities", "setting": "[4]; Strong light for 10 days", "value": 1.32, "unit": "%"}, {"measurement": "Dissolution behavior", "setting": "[5]; Ethanol concentration 50 %, sample concentration 24 mg/g", "value": "Dissolved"}, {"measurement": "Dissolution behavior", "setting": "[5]; Ethanol concentration 66 %, sample concentration 32 mg/g", "value": "Dissolved"}, {"measurement": "Dissolution behavior", "setting": "[5]; Ethanol concentration 75 %, sample concentration 40 mg/g", "value": "Dissolved"}, {"measurement": "Dissolution behavior", "setting": "[5]; Ethanol concentration 100 %, sample concentration 50 mg/g", "value": "Dissolved"}]}, {"smiles": "CO[C@H]1[C@H](O)[C@H](O[C@H]2CC[C@@]3(C)[C@H](CC[C@@H]4[C@@H]3CC[C@]3(C)[C@@H](C5=CC(=O)OC5)CC[C@]43O)C2)O[C@@H](C)[C@@H]1O", "note": "[neriifolin]", "values": [{"measurement": "progression of experimental autoimmune encephalomyelitis (EAE)", "setting": "[6]", "value": "ameliorate the progression"}, {"measurement": "formation of LC3-associated phagosomes", "setting": "beclin1", "value": "inhibit the formation of LC3-associated phagosomes"}]}]}
